Test results published in US20080267882A1, “Imaging compounds, methods of making imaging compounds, methods of imaging, therapeutic compounds, methods of making therapeutic compounds, and methods of therapy” (Stanford University, priority 2007, published 2008).
Where two headings read alike, the source gives them in different places.

Legend:
U87MG cells = assay: cell adhesion assay on vitronectin coated plates; type: cell-based, human; conditions: for IC50: n=4, read-out: calculated IC50 (inhibition of U87MG cell adhesion); for anti-adhesion multivalent enhancement ratio (MVE): IC50 of RGD monomer divided by IC50 of RGD multimer
Description: Ninety-six well plates were coated with 2 μg/mL of fibronectin or vitronectin (Sigma-Aldrich) in PBS at 4° C. overnight and treated with 2% bovine serum albumin (BSA) for 1 h at 37° C. U87MG cells (human glioblastoma, ATCC; 2×10^5 cells/mL) with various concentrations of RGD multimers (50 nM, 200 nM, 800 nM) in 100 μL serum-free Dulbecco's modified Eagle's medium (DMEM) containing 0.1% BSA were incubated for 20 min at 37° C. The resulting mixture was added to the plates and incubated for 1 h at 37° C. Plates treated with BSA only were used as negative control. After removal of the medium by aspiration, 0.04% crystal violet solution was added and incubated for 10 min at room temperature. The wells were washed three times with PBS and 20 μL Triton X-100 were added for permeabilization. Distilled water (80 μL) was then added and the number of adherent cells was assessed with a microplate reader (Tecan; measurement wavelength: 550 nm; reference wavelength: 630 nm).

[1] = mouse, in vivo
Description: A U87MG tumor mouse was intravenously injected with 3.7 MBq of ^18F-FPRGD2. At 1 h after injection, the mouse was sacrificed, the blood, urine, liver, kidneys, and the U87MG tumor were collected and metabolite analysis was carried out as previously reported (J Nucl Med 2006;47: 113-121 and J Nucl Med 2006;47:1172-1180, each of which is incorporated herein by reference for the corresponding discussion). In brief, blood sample was immediately centrifuged for 5 min at 13,200 rpm. Other tissues were homogenized and then centrifuged for 5 min at 13,200 rpm. The supernatant was each passed through a C18 Sep-Pak cartridge. The urine sample was directly diluted with 1 mL of PBS and passed through a C18 Sep-Pak cartridge. The cartridges were each washed with 2 mL of water and eluted with 2 mL of ACN containing 0.1% TFA. The ACN eluent was concentrated and injected onto the analytical HPLC. The eluent was collected with a fraction collector (0.5 min/fraction) and the radioactivity of each fraction was measured with the γ-counter.
The metabolic stability of ^18F-FPTA-RGD2 was evaluated in an athymic nude mouse bearing a U87MG tumor. Sixty min after intravenous injection of 2 MBq of ^18F-FPTA-RGD2, the mouse was sacrificed and relevant organs were harvested. The blood was collected and immediately centrifuged for 5 min at 13,200 rpm. Liver, kidneys and tumor were homogenized and then centrifuged for 5 min at 13,200 rpm. After removal of the supernatants, the pellets were washed with 1 mL PBS. For each sample, supernatants of both centrifugation steps of blood, liver, and kidneys were combined and passed through C18 Sep-Pak cartridges. The urine sample was directly diluted with 1 mL of PBS and passed through a C18 Sep-Pak cartridge. The cartridges were each washed with 2 mL of water and eluted with 2 mL of ACN containing 0.1% TFA. After evaporation of the solvent, the residues were redissolved in 1 mL PBS and were injected onto the analytical HPLC. The eluent was collected with a fraction collector (0.5 min/fraction) and the radioactivity of each fraction was measured with the γ-counter.

U87MG tumor-bearing mice = assay: in vivo; conditions: mouse
Description: PET scans and image analysis were performed using a microPET R4 rodent model scanner (Siemens Medical Solutions) as previously reported (J Nucl Med 2006;47:113-121 and J Nucl Med 2005;46:1707-1718, each of which is incorporated herein by reference for the corresponding discussion). Each mouse was tail-vein injected with about 3.7 MBq (100 μCi) of ^18F-FPRGD2 under isoflurane anesthesia. The 30-min dynamic scan (1×30 s, 4×1 min, 1×1.5 min, 4×2 min, 1×2.5 min, 4×3 min, total of 15 frames) was started 1 min after injection. Five min static PET images were also acquired at 1 h and 2 h post-injection (p.i.). The images were reconstructed by a 2-dimensional ordered-subsets expectation maximum (OSEM) algorithm and no correction was applied for attenuation or scatter.
PET scans and image analysis were performed using a microPET R4 rodent model scanner (Siemens Medical Solutions) as previously reported. For U87MG tumor model, mice (n=3) were tail-vein injected with about 3.7 MBq (100 μCi) of ^18F-FPRGD4 under isoflurane anesthesia and then subjected to a 30-min dynamic scan (1×30 s, 4×1 min, 1×1.5 min, 4×2 min, 1×2.5 min, 4×3 min, total of 15 frames) starting from 1 min p.i. Five min static PET images were also acquired at 1, 2, and 3 h p.i. The images were reconstructed by 2-dimensional ordered-subsets expectation maximum (OSEM) algorithm. No attenuation or scatter correction was applied. […] The 5-min static PET scans was then acquired at 30 min and 1 h p.i. Multiple time point static scans were also obtained for orthotopic MDA-MB-435, c-neu oncomouse, and subcutaneous DU145 tumor models after tail-vein injected with 3.7 MBq of ^18F-FPRGD4.
For each microPET scan, regions of interest (ROIs) were drawn over the tumor, normal tissue, and major organs by using vendor software (ASI Pro 5.2.4.0) on decay-corrected whole-body coronal images. The maximum radioactivity concentration (accumulation) within a tumor or an organ was obtained from mean pixel values within the multiple ROI volume, which were converted to counts/mL/min by using a conversion factor. Assuming a tissue density of 1 g/mL, the ROIs were converted to counts/g/min and then divided by the administered activity to obtain an imaging ROI-derived % ID/g. […]
PET scans and image analysis were performed using a microPET R4 rodent model scanner (Siemens Medical Solutions) as previously reported (J Nucl Med. 2005;46:1707-1718 and J Nucl Med. 2006;47:113-121, each of which is incorporated herein by reference for the corresponding discussion). About 9.3 MBq of ^64Cu-DOTA-RGD multimer was intravenously injected into each mouse under isoflurane anesthesia. Five minute static scans were acquired at 30 min, 1 h, 2 h, 6 h, and 20 h p.i. The images were reconstructed by a 2-dimensional ordered-subsets expectation maximum (OSEM) algorithm and no correction was applied for attenuation and scatter. For each microPET scan, regions of interest (ROIs) were drawn over the tumor, normal tissue, and major organs on decay-corrected whole-body coronal images. The radioactivity concentration (accumulation) within a tumor was obtained from the maximum value within the multiple ROIs and then converted to % ID/g.
PET scans and image analysis were performed using a microPET R4 rodent model scanner (Siemens Medical Solutions) as previously reported (J Nucl Med. 2006;47:113-21 and J Nucl Med. 2005;46:1707-18, which is incorporated herein by reference for the corresponding discussion). […] The 60-min dynamic scan (5×1 min, 10×3 min, 5×5 min, total of 20 frames) was started 1 min after injection. A 2 h time point static scan was also acquired after the 60 min dynamic scan. Five min static PET images were also acquired separately at 30 min, 1 h and 2 h time points post-injection (p.i.) for another set of tumor-bearing mice (n=3/tracer). The images were reconstructed by a 2-dimensional ordered-subsets expectation maximum (OSEM) algorithm and no correction was necessary for attenuation or scatter correction. […]

integrin αvβ3 = target: T1, integrin αvβ3 (Homo sapiens, UniProt P05106+P06756); assay: competitive cell binding assay using ^125I-echistatin on U87MG cells; conditions: for receptor binding multivalent enhancement ratio (MVE): IC50 of RGD monomer divided by IC50 of RGD multimer
T1 construct: evaluated using U87MG cells (integrin αvβ3-positive); endogenous in cells; host or cells: U87MG human glioblastoma cells (ATCC)
Description: Experiments were performed on U87MG human glioblastoma cells with triplicate samples as previously reported.
In vitro integrin αvβ3-binding affinities and specificities of RGD4, PRGD4 and FPRGD4 were assessed via displacement cell binding assays using ^125I-echistatin as the integrin αvβ3-specific radioligand. Experiments were performed on U87MG human glioblastoma cells by the method previously described (J Nucl Med. 2005;46:1707-1718 J Nucl Med. 2006;47:1172-1180, which is incorporated herein by reference for the corresponding discussion). […] Experiments were performed with triplicate samples.
Experiments were performed with triplicate samples.
In vitro integrin-binding affinity and specificity of RGD multimers and DOTA-RGD multimers were assessed via competitive cell binding assays using ^125I-echistatin as the integrin αvβ3-specific radioligand (J Nucl Med. 2005;46:1707-1718, which is incorporated herein by reference for the corresponding discussion). […] Experiments were performed with triplicate samples.

[2] = Example 4, n=3, read-out: IC50 (inhibition of ^125I-echistatin binding to U87MG cells)

| Molecule | IC50 (U87MG cells; vitronectin coated plates) [nM] | IC50 (integrin αvβ3; [2]) [nM] | receptor binding multivalent enhancement ratio (MVE) (integrin αvβ3) | anti-adhesion multivalent enhancement ratio (MVE) (U87MG cells) | other results |
| --- | --- | --- | --- | --- | --- |
| N=C(N)NCCC[C@@H]1NC(=O)[C@H](CCCCNC(=O)CC[C@H](N)C(=O)NCCCC[C@@H]2NC(=O)[C@@H](Cc3ccc(O)cc3)NC(=O)[C@H](CC(=O)O)NC(=O)CNC(=O)[C@H](CCCNC(=N)N)NC2=O)NC(=O)[C@@H](Cc2ccc(O)cc2)NC(=O)[C@H](CC(=O)O)NC(=O)CNC1=O [RGD2, E[c(RGDyK)]2, reference compound] | 700 |  |  |  |  |
| ^18F-fluoro-PEG-triazole-E(RGDyK)2 [^18F-FPTA-RGD2] |  |  |  |  | extraction efficiency (radioactivity in the supernatant) [1]: 86-99%; non-retained fraction (activity not trapped on C18 cartridges) [1]: 1-41% |
| ^18F-FB-E[c(RGDyK)]2 [^18F-FRGD2, reference compound] |  |  |  |  | residence time for kidneys (U87MG tumor-bearing mice): 0.029 h |
| N=C(N)NCCC[C@@H]1NC(=O)[C@H](CCCCNC(=O)CC[C@H](NC(=O)CC[C@H](N)C(=O)N[C@@H](CCC(=O)NCCCC[C@@H]2NC(=O)[C@@H](Cc3ccc(O)cc3)NC(=O)[C@H](CC(=O)O)NC(=O)CNC(=O)[C@H](CCCNC(=N)N)NC2=O)C(=O)NCCCC[C@@H]2NC(=O)[C@@H](Cc3ccc(O)cc3)NC(=O)[C@H](CC(=O)O)NC(=O)CNC(=O)[C@H](CCCNC(=N)N)NC2=O)C(=O)NCCCC[C@@H]2NC(=O)[C@@H](Cc3ccc(O)cc3)NC(=O)[C@H](CC(=O)O)NC(=O)CNC(=O)[C@H](CCCNC(=N)N)NC2=O)NC(=O)[C@@H](Cc2ccc(O)cc2)NC(=O)[C@H](CC(=O)O)NC(=O)CNC1=O [RGD4, E{E[c(RGDyK)]2}2] | 320 | 35 | 5.9 | 8.4 | IC50 (integrin αvβ3; Example 2, n=3, read-out: IC50 (inhibition of ^125I-echistatin binding to U87MG cells)): 39.1 ± 5.5 nM; fold higher integrin αvβ3 avidity than the RGD dimer (integrin αvβ3; Example 4): about 3 fold |
| N=C(N)NCCC[C@@H]1NC(=O)[C@H](CCCCNC(=O)CC[C@H](NC(=O)CC[C@H](NC(=O)CC[C@H](N)C(=O)N[C@@H](CCC(=O)N[C@@H](CCC(=O)NCCCC[C@@H]2NC(=O)[C@@H](Cc3ccc(O)cc3)NC(=O)[C@H](CC(=O)O)NC(=O)CNC(=O)[C@H](CCCNC(=N)N)NC2=O)C(=O)NCCCC[C@@H]2NC(=O)[C@@H](Cc3ccc(O)cc3)NC(=O)[C@H](CC(=O)O)NC(=O)CNC(=O)[C@H](CCCNC(=N)N)NC2=O)C(=O)N[C@@H](CCC(=O)NCCCC[C@@H]2NC(=O)[C@@H](Cc3ccc(O)cc3)NC(=O)[C@H](CC(=O)O)NC(=O)CNC(=O)[C@H](CCCNC(=N)N)NC2=O)C(=O)NCCCC[C@@H]2NC(=O)[C@@H](Cc3ccc(O)cc3)NC(=O)[C@H](CC(=O)O)NC(=O)CNC(=O)[C@H](CCCNC(=N)N)NC2=O)C(=O)N[C@@H](CCC(=O)NCCCC[C@@H]2NC(=O)[C@@H](Cc3ccc(O)cc3)NC(=O)[C@H](CC(=O)O)NC(=O)CNC(=O)[C@H](CCCNC(=N)N)NC2=O)C(=O)NCCCC[C@@H]2NC(=O)[C@@H](Cc3ccc(O)cc3)NC(=O)[C@H](CC(=O)O)NC(=O)CNC(=O)[C@H](CCCNC(=N)N)NC2=O)C(=O)NCCCC[C@@H]2NC(=O)[C@@H](Cc3ccc(O)cc3)NC(=O)[C@H](CC(=O)O)NC(=O)CNC(=O)[C@H](CCCNC(=N)N)NC2=O)NC(=O)[C@@H](Cc2ccc(O)cc2)NC(=O)[C@H](CC(=O)O)NC(=O)CNC1=O [RGD octamer, E(E{E[c(RGDyK)]2}2)2] |  | 10 | 20.3 | 25.6 | further fold increase of integrin avidity over RGD tetramer (integrin αvβ3; Example 4): 3 fold; IC50 (integrin αvβ3; Example 4, introduction, read-out: IC50 value (αvβ3 integrin binding)): 10 nM; times as effective as the RGD monomer (U87MG cells; vitronectin coated plates): 27 times |
